# Measured values as given in patent publication US10011562B2, “Long-chain dimethylaniline derivative compounds, their preparation methods, self-assembled textures, and uses thereof” (WEST CHINA HOSPITAL, SICHUAN UNIVERSITY, priority 2014, dated 2018).
# Counter-ions that a name gives are not always drawn.
# Experiments:
# Na+ channels = settings: with the addition of surface-active agent or with the help of forming micelles; cited from earlier work
# sciatic nerve of rats [1] = experiment: First local anesthetic experiment of rats: blocking of sciatic nerve, motor function by hindlimb postural extensor thrust (PET); assay type: in vivo
# Method: (§1) Selected above micelle, positive control lidocaine, and negative control normal saline were respectively administrated to 28 groups of test rats fully adapted to experiment environment, with five rats for each group. The administration dosage is: the concentration of lidocaine group being 2% aqueous solution (84 mmol/L), and the concentration of tested drug being 5 mmol/L. The injection volume of each rat receiving drugs or the control was 0.2 ml, and the drug or the control was injected to close to sciatic nerve of rats by guidance of nerve locator.
# (§2) The tested rats were placed on bench board and allowed to inhale 5% isoflurane. After body-righting reflex abolition, rats are allowed to continue inhaling 1.5% isoflurane, to keep anesthesia. Keeping left-lateral position, their corresponding injection area sacrococygeal region was shaved, then routine sterilization and draping were performed. Two osseous anatomic landmarks greater trochanter of femur and tuber is chiadicum were laid hands, and the middle point of this line was the needle insertion position. If skin was taut, 1 ml injector was inserted along perpendicular of skin. When needlepoint reached hucklebone, the insertion was finished. […] Needle was lifted, and is oflurane was shut off. Animals were placed in observation cage until they naturally awakened.
# (§3) The hindlimb postural extensor thrust (PET) was used for evaluation. Rats were lifted vertically and their hindlimbs of injection side stepped on the top of electronic balance. At this time, the postural extensor thrust was shown as the value of balance. When limbs were completely paralytic, the digital reading was the weight of limbs, about 20 g. If the test value was more than half of the difference between the baseline and the limbs weight, the motor function was taken as recovery; If less than or equal to half of the difference, the motor function was taken as deprivation.
# (§4) The interval between completion of injection and the time point that the motor function was firstly deprivated was the time of effective motor blocking; the interval between completion of injection and the time point that the motor function was firstly recovered was the time of ineffective motor blocking; their difference was the hold time of motor blocking.
# sciatic nerve of rats [2] = experiment: Third local anesthetic experiment of rats: hydrogels embedded near the sciatic nerve, motor function (PET); assay type: in vivo
# Description: as §3, §4
# (§5) 25 mmol/L transparent uniform hydrogels of products obtained in Examples 7-10 and 13-32 were prepared under sterile conditions, as the method of Example 45, and kept for use.
# (§6) Above hydrogels, positive control lidocaine, and negative control normal saline were respectively administrated to 35 groups of test rats fully adapted to experiment environment, with five rats for each group. The administration dosage is: the concentration of lidocaine group being 2% aqueous solution (84 mmol/L). The injection volume of each rat receiving drugs or the control was […], and the control was injected to near the sciatic nerve of rats by guidance of nerve locator; by surgery, the gels were embedded near the sciatic nerve of experimental rats after general anesthesia using sevoflurane. Specific procedures and the evaluation criterion for local anesthetic effect were same as mentioned in Example 60.
# sciatic nerve of rats [3] = experiment: Second local anesthetic experiment of rats: blocking of sciatic nerve, motor function (PET); assay type: in vivo; settings: 0.2 ml of formulated solution injected close to sciatic nerve, lidocaine 2% (84 mmol/L)
# Method: (§7) The tested rats were placed on bench board and allowed to inhale 5% isoflurane. After body-righting reflex abolition, rats are allowed to continue inhaling 1.5% isoflurane, to keep anesthesia. Keeping left-lateral position, their corresponding injection area sacrococygeal region was shaved, then routine sterilization and draping were performed. Two osseous anatomic landmarks greater trochanter of femur and tuber is chiadicum were laid hands, and the middle point of this line was the needle insertion position. If skin was taut, 1 ml injector was inserted along perpendicular of skin. When needlepoint reached hucklebone, the insertion was finished. Once no blood return was found as suction, 0.2 ml drug solution was slowly injected. Needle was lifted, and is oflurane was shut off. Animals were placed in observation cage until they naturally awakened.
# The hindlimb postural extensor thrust (PET) was used for evaluation. Rats were lifted vertically and their hindlimbs of injection side stepped on the top of electronic balance. At this time, the postural extensor thrust was shown as the value of balance. When limbs were completely paralytic, the digital reading was the weight of limbs, about 20 g. […]
# sciatic nerve of rats [4] = experiment: Second local anesthetic experiment of rats: blocking of sciatic nerve, mechanical withdrawal threshold (VFH); assay type: in vivo; settings: 0.2 ml of formulated solution injected close to sciatic nerve, lidocaine 2% (84 mmol/L)
# Method: as §7
# Rats were placed in transparent observation cages with a bottom of smooth metal sieve plate, and the corrected von frey filament was used to stimulate the foot lateral skin of rats (innervated region of sciatic nerve) from down to up. […] For each stimulation, slightly bent of filament was used as a standard, or rats moved aside this side of limbs. Otherwise, once the stimulation time reached 3 s, operator stopped stimulating. Three tests were carried out for each time point, and the interval between two tests was 5 min, to avoid sensibilization. […]
# sciatic nerve of rats [5] = experiment: Third local anesthetic experiment of rats: hydrogels embedded near the sciatic nerve, mechanical withdrawal threshold (VFH); assay type: in vivo
# Method: (§8) Rats were placed in transparent observation cages with a bottom of smooth metal sieve plate, and the corrected von frey filament was used to stimulate the foot lateral skin of rats (innervated region of sciatic nerve) from down to up. […] For each stimulation, slightly bent of filament was used as a standard, or rats moved aside this side of limbs. Otherwise, once the stimulation time reached 3 s, operator stopped stimulating. Three tests were carried out for each time point, and the interval between two tests was 5 min, to avoid sensibilization.
# (§9) If the mechanical withdrawal threshold value was more than 60 g, the nerve blocking was considered as effective.
# as §5, §6
# sciatic nerve of rats [6] = experiment: First local anesthetic experiment of rats: blocking of sciatic nerve, mechanical withdrawal threshold (VFH, von Frey filaments); assay type: in vivo
# Method: as §1, §2, §8, §9
# [7] = rats, 25 mmol/L hydrogel, 0.2 g embedded by surgery near sciatic nerve, lidocaine 2% (84 mmol/L) injected
SMILES,local anesthetic actions lasting (Na+ channels),"The hold time of motor blocking (sciatic nerve of rats [1]; rats, 0.2 ml injected close to sciatic nerve, tested drug 5 mmol/L solution (micelle), lidocaine 2% (84 mmol/L)) [h]",The hold time of motor blocking (sciatic nerve of rats [2]; [7]) [h],The hold time of motor blocking (sciatic nerve of rats [3]) [h],Effective local anesthetic time (sciatic nerve of rats [4]) [min],The hold time of sensation blocking (sciatic nerve of rats [4]) [h],Effective local anesthetic time (sciatic nerve of rats [5]; [7]) [min],The hold time of sensation blocking (sciatic nerve of rats [5]; [7]) [h],"The hold time of sensation blocking (sciatic nerve of rats [6]; rats, 0.2 ml injected close to sciatic nerve, tested drug 5 mmol/L solution (micelle), lidocaine 2% (84 mmol/L), threshold above 60 g) [h]","Effective local anesthetic time (sciatic nerve of rats [6]; rats, 0.2 ml injected close to sciatic nerve, tested drug 5 mmol/L solution (micelle), lidocaine 2% aqueous solution (84 mmol/L)) [min]","The hold time of motor blocking (sciatic nerve of rats [1]; rat, in vivo) [h]","The hold time of motor blocking (sciatic nerve of rats [2]; rat, in vivo) [h]","Effective local anesthetic time (sciatic nerve of rats [5]; rat, in vivo) [min]","The hold time of sensation blocking (sciatic nerve of rats [5]; rat, in vivo) [h]","Effective local anesthetic time (sciatic nerve of rats [6]; rat, in vivo) [min]","The hold time of sensation blocking (sciatic nerve of rats [6]; rat, in vivo) [h]"
CC[N+](CC)(CC)CC(=O)Nc1c(C)cccc1C.[Br-] [QX314],more than 8 hours,,,,,,,,,,,,,,,
"CCN(CC)CC(=O)Nc1c(C)cccc1C [2% lidocaine hydrochloride, lidocaine hydrochloride, reference compound]",,2,2,2,1,2,1,2,2,1,,,,,,
CCCCCCCOC(=O)OCC[N+](CC)(CC)CC(=O)Nc1c(C)cccc1C [Example15product],,,,,,,,,,,66,79,53,81,17,81
CCCCCCCCCOC(=O)OCC[N+](CC)(CC)CC(=O)Nc1c(C)cccc1C [Example19product],,,,,,,,,,,56,88,65,90,16,82
CCCCCCCCCCCCOC(=O)OCC[N+](CC)(CC)CC(=O)Nc1c(C)cccc1C [Example26product],,,,,,,,,,,80,77,88,81,20,80
